Data: US7795305B2, “CDDO-compounds and combination therapies thereof” (Board of Regents, The University of Texas System, priority 2000, dated 2010)

Columns and labels:
KG-1 = experiment: Growth inhibition of leukemic cell line; format: cell-based, human
Description: (§1) Suspension culture of leukemic cells.

NB4 = experiment: Growth inhibition of leukemic cell line; format: cell-based, human
Description: as §1

U937 cells = experiment: Mitochondrial membrane potential; format: cell-based, human
Description: Cytofluorometric analysis of the Δψm. To evaluate the Δψm, cells were incubated with the cationic lipophilic dye […] (CMXRos; 150 nM; Molecular Probes, Inc., Eugene, Oreg.). CMXRos is incorporated into mitochondria driven by the […] and reacts with thiol residues to form covalent thiol ester bonds. CMXRos fluorescence was recorded by flow cytometry in the FL3 channel. Background values of the apoptosis of control cells cultured without the CDDO-Me or in DMSO-solvent control (<10% CMXRos-low) were subtracted from the values obtained under the experimental conditions.
An early mitochondrial disruption has been observed in a number of different models of apoptosis. Changes in the cellular content of the cationic lipophilic fluorochrome CMXRos were determined by FACS analysis to measure loss of the mitochondrial membrane potential (Δψ) (Macho et al., 1996). […] Similarly, exposure of HL-60 to CDDO-Me (1 μM) for 2 and 4 hrs increased the number of cells with low JC-1 (57 and 60%) or CMXRos staining (46 and 57%), both assays measuring the decrease in Δψ. CDDO-Me-induced changes in the mitochondrial membrane potential of the cells preceded caspase activation and changes in the composition of the plasma membrane. […]

HL-60 cells [1] = experiment: Annexin V staining; format: cell-based, human; details: 0.1 μM CDDO-Me alone or combined with 1 μM ATRA
Description: (§2) Annexin V staining. Cells were washed in phosphate-buffered saline (PBS) and resuspended in 100 μl of binding buffer containing Annexin V (Roche Diagnostic Corporation, Indianapolis, Ind.). Cells were analyzed by flow cytometry after the addition of propidium iodide (PI). Annexin V binds to those cells that express phosphatidylserine on the outer layer of the cell membrane, and PI stains the cellular DNA of those cells with a compromised cell membrane. This allows for live cells (unstained with either fluorochrome) to be discriminated from apoptotic cells (stained only with annexin V) and necrotic cells (stained with both annexin and PI).
CDDO-Me. CDDO-Me and retinoids synergistically decrease viability and induce differentiation in leukemic cell lines. The inventors tested the Effect of CDDO-Me/ATRA combinations in different leukemic cell lines. […] This was confirmed in HL-60 cells by annexin V staining (17.9 vs 30% positive cells when 0.1 μM of CDDO-Me was combined with 1 μM ATRA). In primary AML, ATRA enhanced CDDO-Me-induced apoptosis in 3/8 samples tested (an example of subG1 flow cytometry in AML sample shown in FIG. 32).

HL-60 cells [2] = experiment: CDDO-Me plus LG-100268 in HL-60 cells (Table 6); format: cell-based, human; parameters: unit not given here; details: 24 hrs; CDDO-Me 0.1 μM, no ligand
Description: Finally, the inventors examined if CDDO-Me combined with ATRA would enhance differentiation. HL-60 cells were cultured with of 0.1 μM of CDDO-Me for 72 hrs, alone or in combination with 1 μM ATRA. […] At 48 hrs, 67.4% in CDDO-Me-treated cells and 63.5% in ATRA-treated cells were CD11b+ (compared with 40% in DMSO controls), while 85% of cells were positive when both compounds were given simultaneously. These studies were repeated 3 times and yielded essentially identical results. Next, combined treatment with CDDO-Me and RXR-specific ligand were tested for potentiation of anti-leukemic effects. RXR-specific ligand LG-100268 (Ligand Pharmaceuticals) used at 10, 100 nm and 1 μM enhanced killing of HL-60 cells in a dose-dependent manner (Table 6).

[3] = system: wt-PPARγ-transfected D9 cells; experiment: Annexin V / cell number in wt-PPARγ-transfected D9 cells; format: cell-based
Description: as §2
(§3) To characterize the correlation between PPARγ and caspase activation, caspase-3 levels in D9 cells transfected with wt-PPARγ were analyzed. Six different single cell-derived clones were treated with 3 μM CDDO or vehicle controls for 5 hrs. Caspase-3 cleavage was analyzed by Western blot. A decrease in pro-caspase-3 with appearance of the cleaved product was readily observed in all clones. The degree of cleavage was higher in PPARγ-transfected than in vector control cells that express endogenous PPARγ. […] These changes correlated with plasma membrane changes: vector control=47.0% annexin V-positive cells; wt-PPARγ-transfected cells=73.3±1.1% annexin V (+), n=6. […] PPARγ-transfected cells were also more sensitive to PPARγ-ligand 15d-PGJ2 (41.00% vs 16.0% annexin (+) cells at 3 μM).
as §3, with “(41.0%” for “(41.00%”
The sensitivity of leukemic cells that overexpress PPARγ to CDDO-induced killing was tested. Vector control (pcDNA) or wt-PPARγ-transfected D9 cells (2 different clones) were treated 0.2 μM of CDDO for 48 hrs. Cell viability was assessed by cell count after Trypan blue exclusion, and apoptosis determined by PS/annexin V/Propidium Iodide (PI) flow cytometry. Leukemic cells transfected with PPARγ expressed 2.8-3.7-fold higher amounts of protein compared with vector controls. […] Importantly, CDDO increased PPARγ expression in both, vector control and transfected cells. […]

435 breast cancer cells = experiment: Breast cancer growth in nude mice; format: in vivo; details: 20 and 40 mg/kg i.v. twice a week
Description: CDDO was given at 20 and 40 mg/kg i.v. twice a week 10 days after nude mice were injected s.c. with 2×10^6 estrogen-receptor negative, PPARγ positive 435 breast cancer cells.

HL-60 cells [4] = experiment: Differentiation by CD11b/CD14 flow cytometry; format: cell-based, human; details: 7 days, 0.5 μM

| Structure (SMILES) | IC50 (KG-1) | IC50 (NB4) | cells with decreased Δψ (U937 cells; CDDO-Me alone) | cells with decreased Δψ (U937 cells; after DEVD pretreatment) | annexin V positive cells (HL-60 cells [1]) | Table 6 value: CDDO-Me-induced monocytic differentiation in HL-60 cells (HL-60 cells [2]) | annexin V (+) cells ([3]; 3 μM (CDDO: 5 hrs, n=6)) | cell number decreased by ([3]; 3 μM CDDO) | higher sensitivity compared to vector-control cells ([3]; all six single cell-derived subclones, 0.2 μM CDDO, 48 hrs) | growth of breast cancer cells in vivo (435 breast cancer cells) | CD11b % (HL-60 cells [4]) |
| --- | --- | --- | --- | --- | --- | --- | --- | --- | --- | --- | --- |
| COC(=O)[C@]12CCC(C)(C)C[C@H]1[C@H]1C(=O)C=C3[C@@]4(C)C=C(C#N)C(=O)C(C)(C)[C@@H]4CC[C@@]3(C)[C@]1(C)CC2 [CDDO-Me] | 400 nM | 270 nM | 40% | 4% | 17.9% | 22.4 |  |  |  |  |  |
| CC1(C)CCC2(C(=O)O)CCC3(C)C(C(=O)C=C4C5(C)C=C(C#N)C(=O)C(C)(C)C5CCC43C)C2C1 (centres unmarked) [CDDO, 2-cyano-3,12-dioxoolen-1,9-dien-28-oic acid] |  |  |  |  |  |  | 73.3±1.1% | 48.8±12.4% | > 50% | inhibits the growth of breast cancer cells in vivo | 83.1% |
